Source: US20250186450A1, “COMBINATION THERAPY COMPRISING DGK INHIBITORS and PD-1/PD-L1 INHIBITORS” (Incyte Corporation, priority 2023, published 2025)
“Also recorded” adds a separate entry of the source.

System: MC38 syngeneic tumor model
Test: MC38 syngeneic tumor model, DGK inhibitor plus anti-PD-1 (RMP1-14)
Format: in vivo, C57Bl/6 mice
Protocol: The in vivo effect of combining Compound 1 plus anti-PD-1 (RMP1-14, Bio X Cell) was assessed in the MC38 (CRL-1642, ATCC, Manassas, VA) syngeneic tumor model (see FIG. 3) in 6 to 8 weeks old C57Bl/6 mice (Jackson laboratories). Compound 1 was suspended in 5% N,N-dimethylacetamide (DMAC)+50 mM Citrate buffer in 0.5% methyl cellulose for oral administration and RMP1-14 was suspended in saline for intraperitoneal administration. Briefly, the left flank of the mice was shaved the day prior to subcutaneous inoculation with 2×10^6 MC38 cells suspended in PBS. On day 7, tumor dimensions were measured by Vernier calipers, and volume estimated by the formula Volume=[L (long dimension)×W^2 (short dimension)]/2. Mice were randomized into 6 groups of 10 mice of approximate mean volume (˜160 mm^3). Tumors were measured 3 times per week for the duration of the study. Starting day 7, mice were dosed with (i) vehicle; (ii) 250 μg/mouse of RMP1-14; (iii) 10 mg/kg of Compound 1; (iv) 1 mg/kg of Compound 1; (v) 10 mg/kg of Compound 1 and 250 μg/mouse of RMP1-14; or (vi) 1 mg/kg of Compound 1 and 250 μg/mouse of RMP1-14. Compound 1 was administered orally once daily (QD) for 12 days, while RMP1-14 was dosed every 5 days (for a total of 3 doses).
The in vivo effect of combining Compound 2 plus anti-PD-1 (RMP1-14, Bio X Cell) was assessed in the MC38 (CRL-1642, ATCC, Manassas, VA) syngeneic tumor model in 6 to 8 weeks old C57Bl/6 mice (Jackson laboratories). Compound 2 was suspended in 5% N,N-dimethylacetamide (DMAC)+50 mM Citrate buffer in 0.5% methyl cellulose for oral administration and RMP1-14 was suspended in saline for intraperitoneal administration. Briefly, the left flank of the mice was shaved the day prior to subcutaneous inoculation with 2×10^6 MC38 cells suspended in PBS. On day 7, tumor dimensions were measured by Vernier calipers, and volume estimated by the formula Volume=[L (long dimension)×W^2 (short dimension)]/2. Mice were randomized into 6 groups of 10 mice of approximate mean volume (˜130 mm^3). Tumors were measured 3 times per week for the duration of the study. Starting day 7, mice were dosed with (i) vehicle; (ii) 250 μg/mouse of RMP1-14 (Anti-PD-1); (iii) 0.5 mg/kg of Compound 2 QD; (iv) 0.5 mg/kg of Compound 2 […] and 250 μg/mouse of RMP1-14; (v) 0.5 mg/kg of Compound 2 Q2D; (vi) 0.5 mg/kg of Compound 2 […] and 250 μg/mouse of RMP1-14; (vii) 1.5 mg/kg of Compound 2 QD; (viii) 1.5 mg/kg of Compound 2 QD and 250 μg/mouse of RMP1-14 (ix) 1.5 mg/kg of Compound 2 Q2D; (x) 1.5 mg/kg of Compound 2 Q2D and 250 μg/mouse of RMP1-14; (xi) 1.5 mg/kg of Compound 2 Q3D; or (xii) 1.5 mg/kg of Compound 2 Q3D and 250 μg/mouse of RMP1-14.
The in vivo effect of combining 2-(4-((2S,5R)-4-(bis(4-fluorophenyl)methyl)-2,5-dimethylpiperazin-1-yl)-1H-[1,2,4]triazolo[3,4-b]purin-1-yl)-N,N-dimethylethane-1-amine (i.e., Compound 3) plus anti-PD-1 (RMP1-14, Bio X Cell) was assessed in the MC38 (CRL-1642, ATCC, Manassas, VA) syngeneic tumor model in 6 to 8 weeks old C57Bl/6 mice (Jackson laboratories). Compound 3 was suspended in 5% N,N-dimethylacetamide (DMAC)+50 mM Citrate buffer in 0.5% methyl cellulose for oral administration and RMP1-14 was suspended in saline for intraperitoneal administration. Briefly, the left flank of the mice was shaved the day prior to subcutaneous inoculation with 2×10^6 MC38 cells suspended in PBS. On day 7, tumor dimensions were measured by Vernier calipers, and volume estimated by the formula Volume=[L (long dimension)×W^2 (short dimension)]/2. Mice were randomized into 6 groups of 10 mice of approximate mean volume (˜200 mm^3). Tumors were measured 3 times per week for the duration of the study. Starting day 7, mice were dosed with (i) vehicle; (ii) 250 μg/mouse of RMP1-14 (Anti-PD-1); (iii) 10 mg/kg of Compound 3 QD; (iv) 10 mg/kg of Compound 3 QD and 250 μg/mouse of RMP1-14; (v) 30 mg/kg of Compound 3 QD; or (vi) 30 mg/kg of Compound 3 QD and 250 μg/mouse of RMP1-14.

SMILES	TGI, combined with anti-PD-1 mAb, vs anti-PD-1 mAb control group (1.5 mg/kg Compound 2 and 250 μg/mouse RMP1-14, FIG. 7)	TGI, combined with anti-PD-1 mAb, vs vehicle control group (0.5 and 1.5 mg/kg Compound 2, independent of dose schedule, and 250 μg/mouse RMP1-14, FIG. 7)	TGI, combination groups vs respective single-arm Compound 2 control group (0.5 or 1.5 mg/kg Compound 2 and 250 μg/mouse RMP1-14)	TGI vs vehicle and anti-PD-1 mAb control groups (Compound 2 alone, 0.5 or 1.5 mg/kg, FIG. 7)	combination effect on tumor growth delay (Bliss Independence analysis) (10 mg/kg or 1 mg/kg Compound 1 QD for 12 days with 250 μg RMP1-14, vs respective controls, FIG. 3)
Cc1nc2c(N3C[C@@H](C)N(C(c4ccc(C(F)(F)F)cc4)C4CC(F)(F)C4)C[C@@H]3C)nc3nncn3c2n1C[C@@H]1CCCO1 (single isomer, unassigned) [Example 2]	significant TGI	statistically significant; also recorded: significant TGI	statistically significant	None of the single treatment arm groups dosed with Compound 2 0.5 or 1.5 mg/kg provided statistically significant TGI	–
C[C@@H]1CN(c2nc3nncn3c3c2nnn3C[C@H]2CCCO2)[C@@H](C)CN1C(c1ccc(F)cc1)c1ccc(F)cc1 [Example 1, 4-((2S,5R)-4-(Bis(4-fluorophenyl)methyl)-2,5-dimethylpiperazin-1-yl)-1-(((R)-tetrahydrofuran-2-yl)methyl)-1H-[1,2,3]triazolo[4,5-e][1,2,4]triazolo[4,3-a]pyrimidine]	–	–	–	–	additive effect in tumor growth delay
